From the CheMixHub viscosity set

Assay: xn = mol fraction of the nth substance listed

CC(C)CC(C)(C)C + C1CCCCC1
viscosity [mPa·s]
Conditions	298.15 K	303.15 K	308.15 K	313.15 K	318.15 K	323.15 K
101 kPa, x2 = 0.1052	–	0.4666	–	–	–	–
101 kPa, x2 = 0.1988	–	0.4842	–	–	–	–
101 kPa, x2 = 0.3026	–	0.505	–	–	–	–
101 kPa, x2 = 0.4095	–	0.5328	–	–	–	–
101 kPa, x2 = 0.5008	–	0.5579	–	–	–	–
101 kPa, x2 = 0.6005	–	0.5947	–	–	–	–
101 kPa, x2 = 0.7002	–	0.6379	–	–	–	–
101 kPa, x2 = 0.8014	–	0.6902	–	–	–	–
101.33 kPa, x1 = 0.035	0.8617	0.7932	0.7312	0.6779	0.6323	0.5887
101.33 kPa, x1 = 0.0662	0.8283	0.7645	0.7054	0.6567	0.6115	0.5733
101.33 kPa, x1 = 0.1012	0.8041	0.741	0.6844	0.6377	0.5952	0.5565
101.33 kPa, x1 = 0.1376	0.7806	0.718	0.6639	0.6192	0.5793	0.5402
101.33 kPa, x1 = 0.1754	0.7572	0.6953	0.6438	0.6	0.5628	0.5235
101.33 kPa, x1 = 0.2147	0.7344	0.6732	0.6242	0.5813	0.5467	–
101.33 kPa, x1 = 0.2557	0.7147	0.6528	0.6066	0.5646	0.5318	–
101.33 kPa, x1 = 0.2984	0.6954	0.633	0.5895	0.5483	0.5172	–
101.33 kPa, x1 = 0.343	0.6717	0.6129	0.5717	0.5322	0.5024	–
101.33 kPa, x1 = 0.3895	0.6484	0.5933	0.5545	0.5166	0.488	–
101.33 kPa, x1 = 0.4382	0.6219	0.5768	0.539	0.5029	0.4762	–
101.33 kPa, x1 = 0.4891	0.5959	0.5607	0.524	0.4895	0.4647	–
101.33 kPa, x1 = 0.5423	0.5752	0.5454	0.5098	0.4781	0.4527	–
101.33 kPa, x1 = 0.5982	0.5549	0.5306	0.496	0.4671	0.4411	–
101.33 kPa, x1 = 0.6569	0.5406	0.5132	0.4812	0.4546	0.4305	–
101.33 kPa, x1 = 0.7185	0.5267	0.4963	0.4668	0.4424	0.4203	–
101.33 kPa, x1 = 0.7834	0.5135	0.4848	0.457	0.4315	0.4106	–
101.33 kPa, x1 = 0.8517	0.5006	0.4737	0.4475	0.421	0.4013	–
101.33 kPa, x1 = 0.9238	0.4888	0.4625	0.4368	0.4131	0.3929	–
